{"source": "patent US20180236109A1", "about": "“Pain Tracking by PET-imaging (Pain-TraP)” (Universitat zu Koln, priority 2015, published 2018)", "key": {"PSMA [1]": {"biological_target": "T1, PSMA (Mus musculus, UniProt O35409)", "T1 construct": "from tissue; host or cells: C57BL/6 mouse, in vivo (hindpaw, thigh/sciatic nerve lesion site, sciatic nerve plexus)", "T1 sequence (O35409 whole entry)": "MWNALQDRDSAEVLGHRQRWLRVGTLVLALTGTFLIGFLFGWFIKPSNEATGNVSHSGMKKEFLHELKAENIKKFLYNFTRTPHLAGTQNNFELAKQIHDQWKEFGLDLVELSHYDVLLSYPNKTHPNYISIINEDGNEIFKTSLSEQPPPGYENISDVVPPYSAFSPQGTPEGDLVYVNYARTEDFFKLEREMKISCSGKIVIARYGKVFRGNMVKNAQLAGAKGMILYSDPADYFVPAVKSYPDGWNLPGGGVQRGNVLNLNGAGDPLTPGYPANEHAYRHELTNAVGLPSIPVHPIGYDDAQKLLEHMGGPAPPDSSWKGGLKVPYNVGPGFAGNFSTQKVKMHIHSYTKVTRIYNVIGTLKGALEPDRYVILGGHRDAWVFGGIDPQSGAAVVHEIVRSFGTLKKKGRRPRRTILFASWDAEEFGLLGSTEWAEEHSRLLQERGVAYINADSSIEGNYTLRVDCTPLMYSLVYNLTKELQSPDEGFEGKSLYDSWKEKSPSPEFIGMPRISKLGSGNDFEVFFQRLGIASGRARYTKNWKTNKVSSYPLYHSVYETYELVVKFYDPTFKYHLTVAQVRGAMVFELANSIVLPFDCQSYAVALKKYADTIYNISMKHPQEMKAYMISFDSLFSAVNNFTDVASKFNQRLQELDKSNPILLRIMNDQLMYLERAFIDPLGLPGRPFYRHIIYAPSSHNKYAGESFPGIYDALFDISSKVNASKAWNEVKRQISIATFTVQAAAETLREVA", "assay": "micro-PET tracer uptake in sciatic nerve lesion (SNI) model of neuropathic pain", "type": "in vivo, mice", "experimental": "(§1) Experiments were performed in male 6- to 12-week-old C57BL/6 mice. Animals were housed on a 12/12 light/dark cycle with access to food and water ad libitum. All experiments adhered to the guidelines of the International Association for the Study of Pain and to the ARRIVE guidelines, and were approved by our local Ethics Committee for Animal Research.\nUnder isoflurane anesthesia, the tibial and common peroneal branches of the sciatic nerve were ligated and sectioned distally, while the sural nerve was left intact (Decosterd and Woolf, 2000); (Bourquin et al., 2006). Mechanical hypersensitivity at the lateral surface of the hindpaw (sural nerve skin area) was determined using a Dynamic Plantar Aesthesiometer as described above.\n(§2) The animals were allowed to wake up in their home cage, where they remained for 50 min. Subsequently, mice were reanesthetized, killed to reduce the time of procedures on the living animal, and placed on a two-animal holder (Medres®). PET scans in list mode were performed using a Focus 220 micro PET scanner (CTI-Siemens®) with a resolution at center of field of view of 1.4 mm. Data acquisition started exactly one hour after [^18F]DCFPyL-injection and lasted […]. It was followed by a transmission scan using a ^57Co-point source for attenuation correction. Following Fourier rebinning, data were reconstructed using the iterative OSEM3D/MAP procedure (Qi et al., 1998) resulting in voxel sizes of 0.38×0.38×0.80 mm.\n(§3) Four individual volumes of interest (VOIs, 24 mm^3 each) were drawn, two of which were placed over the left and right sciatic nerve plexus. The other two were positioned either over the sciatic nerve lesion in the thigh and the undamaged contra-lesional thigh (in case of SNI model), or over the hindpaws (in case of CFA model). […] The ratio of ipsi- and contralateral VOIs was calculated.\nFor each measurement a separate set of animals was used. […] To simplify the measurement methodology, animals were sacrificed instead of anaesthesized after 1 h and measured in a pPET. Images were analyzed for the section of maximal intensity at the site of injection, the respective areas quantified, and the ratio between ipsi- and contralateral side was calculated.\n(§4) In the inflammatory pain model, “Complete Freunds Adjuvant (CFA)” was injected in the left hind paw, which leads to long-lasting inflammation and pain. To induce neuropathic pain in the “Spared nerve injury (SNI) model”, two branches of the sciatic nerve were ligated, while the third branch (the sural nerve) was left intact. In both models, pain sensitivity was measured using the Dynamic Plantar Test at the day before the PET scan. A movable force actuator was positioned below the plantar surface of the animal. A thin (0.5 mm) filament exerted increasing force, until the animal twitched its paw. The time it takes for the animal to retract its paw inversely reflects touch sensitivity.\n(§5) On the next day, the PSMA tracer [^18F]DCFPyL was intravenously injected. After an uptake period of 60 min, an emission scan was performed for 30 min."}, "PSMA [2]": {"biological_target": "T1, PSMA", "assay": "micro-PET tracer uptake in Complete-Freund's-Adjuvant (CFA) model of inflammatory pain", "type": "in vivo, mice", "experimental": "as §1\nThe mechanical sensitivity of the plantar side of a hindpaw was assessed with an automated testing device (dynamic plantar aesthesiometer; Ugo Basile). This device pushes a thin probe (0.5 mm diameter) with increasing force through a wire-grated floor against the plantar surface of the paw from beneath, and it automatically stops and records the latency time after which the animal withdraws the paw. The force increased from 0 to 5 g within 10 s (0.5 g/s ramp) and was then held at 5 g for an additional 10 s (Schmidtko et al., 2008a). The paw withdrawal latency was taken to be the mean of three consecutive trials with at least 10 s in between. After baseline measurements, 20 al of complete Freund's adjuvant (CFA; containing 1 mg/ml heat-killed Mycobacterium tuberculosis in paraffin oil 85% and mannide monooleate 15%; Sigma-Aldrich) was injected into the plantar subcutaneous space of a hindpaw, and paw withdrawal latencies were determined at the indicated timepoints after CFA injection (Schmidtko et al., 2008b).\nas §2, §3\nEach measurement was taken on a separate set of animals. […] To simplify the measurement methodology, animals were sacrificed instead of anaesthesized after 1 h and measured in a iPET. Images were analyzed for the section of maximal intensity at the site of injection, the respective areas quantified, and the ratio between ipsi- and contralateral side calculated.\nas §4, §5"}, "[3]": {"settings": "10 MBq into tail vein, PET after 1 h"}, "[4]": {"settings": "site of lesion, ipsi-/contralateral ratios, individual animals"}}, "data": [{"molecule": "O=C(O)CCC(NC(=O)NC(CCCCNC(=O)c1ccc([18F])nc1)C(=O)O)C(=O)O", "note": "(stereo not shown) [[^18F]DCFPyL, 2-(3-{1-Carboxy-5-[(6-[18F]fluoro-pyridine-3-carbonyl)-amino]-pentyl}-ureido)-pen tanedioic acid]", "values": [{"measurement": "tracer uptake at the lesion site", "setting": "PSMA [1]; 3, 7, and 14 days after surgery, FIG. 11B", "value": "significantly increased"}, {"measurement": "tracer uptake at the contralateral side", "setting": "PSMA [1]; [3]", "value": "little to no"}, {"measurement": "tracer uptake in sham treated animals", "setting": "PSMA [1]; [3]", "value": "little"}, {"measurement": "tracer uptake at the site of injury", "setting": "PSMA [1]; 10 MBq into tail vein, PET after 1 h, sciatic nerve lesion", "value": "high and strong enrichment"}, {"measurement": "quantification of the uptake, increase over sham-operated controls", "setting": "PSMA [1]; average, FIG. 6", "value": "2-3 fold"}, {"measurement": "tracer enrichment along the nerve plexus", "setting": "PSMA [1]; neuropathic pain animals", "value": "enrichment along the nerve toward the spinal cord"}, {"measurement": "correlation of tracer uptake with pain sensitivity", "setting": "PSMA [1]; [4]", "value": "significantly correlated"}, {"measurement": "tracer uptake at the lesion site", "setting": "PSMA [2]; 2, 7, and 14 days after CFA injection, FIG. 12B", "value": "significantly increased"}, {"measurement": "tracer uptake at the contralateral side", "setting": "PSMA [2]; 10 MBq into tail vein, PET after 1 h, contralateral paw", "value": "little to no"}, {"measurement": "tracer uptake at the site of CFA injection", "setting": "PSMA [2]; 10 MBq into tail vein, PET after 1 h, injected hindpaw", "value": "high"}, {"measurement": "enrichment at the side of CFA injection, increase over the contra-lateral side", "setting": "PSMA [2]; FIG. 3", "value": "~2", "unit": "fold"}, {"measurement": "quantification of the uptake, increase over controls", "setting": "PSMA [2]; average, ratio ipsi-/contralateral, FIG. 3", "value": 2, "unit": "fold"}, {"measurement": "correlation of tracer uptake with pain sensitivity", "setting": "PSMA [2]; [4]", "value": "significantly correlated"}]}]}
